Results reported in patent US11975003B2, “Methods and compositions for treatment of Zika virus infection” (priority 2016, dated 2024).
Read-outs that look alike come from different tables or passages of the source.

Legend:
[1] = system: Zika virus PRVABC-59; details: for plasma viremia: n=4; for samples with Zika virus below the limit of quantification: FIG. 15D
[2] = system: Zika virus PRVABC-59
[3] = Phase 1 study of intramuscular injection in healthy human subjects (Example 8); format: in vivo; details: human, in vivo
Procedure: A phase 1 double-blind, placebo-controlled, dose-ranging study was conducted to evaluate the safety, tolerability, and pharmacokinetics of Compound A administered by intramuscular injection (IM) in healthy human subjects. The study was conducted in two parts. In part 1, subjects received a single dose of Compound A at doses from 0.3 mg/kg to 10 mg/kg via IM administration. Additionally, the effect of lidocaine administration (co-administered with Compound A at a dose of 4 mg/kg) on alleviation of pain associated with injection was also evaluated. In part 2, subjects received Compound A for 7 days (q.d.) at doses of 2.5 mg/kg/day, 5 mg/kg/day or 10 mg/kg/day via IM administration. 50 subjects received single doses of Compound A in part 1 (12 subjects received placebo) and 23 subjects received multiple doses of Compound A in part 2 (6 subjects received placebo). All planned cohorts were completed.
Eligible subjects were adults of either sex ages 18 to 50. […]
The plasma concentration time profile of Compound A was determined for each subject in part 2 (results expressed as ng/ml Compound A). Blood samples were taken on Day 1 prior to administration of the first dose and at 1, 2, 3, 4, 6, 8, 10, 12, 16 and 24 hours after administration of the first dose of Compound A and on Day 7 prior to administration of the last dose of Compound A and at 1, 2, 3, 4, 6, 8, 10, 12, 16, 24, 36, 48, 72 and 96 hours after administration of the last dose of Compound A. Plasma samples were obtained from the blood samples and the concentration of Compound A determined.

[4] = system: Zika virus KF993678 (Thai isolate); experiment: Non-human primate Zika virus model, heterologous challenge day 70 (Example 6); format: in vivo, Indian rhesus macaques; details: Groups 1 and 2, no additional dosing
[5] = system: Zika virus (Malaysia, strain P 6-740); experiment: Murine Zika virus model, re-challenge on day 28 (Example 4); format: in vivo, AG129 mice
Procedure: In this example, the surviving mice from the study described in Example 3 were subject to re-challenge on day 28 post-infection. On day 28, the only surviving mice in a treatment group were in group 1 (7/8 mice), the normal controls (group 8, 8/8 mice) and the virus sham treated groups (group 2, 8/8 mice and group 6, 8/8/mice). All surviving mice (with the exception of normal controls) were administered a challenge of Zika virus identical to the initial challenge.
No animals in Groups 1, 2 and 6 were administered additional doses of Compound A on day 28 prior to or after re-challenge. In this experiment, the sham infected mice of groups 2 and 6 served as the control groups to analyze the effects of treatment of Compound A on immune system activation (note that mice in group 2 received the same 300 mg/kg/day dose of Compound A as the mice in group 1 on day 0). The survival of the mice was monitored through day 60 post-initial infection.

## Cl.Nc1ncnc2c([C@@H]3N[C@H](CO)[C@@H](O)[C@H]3O)c[nH]c12 [Compound A]
[1]; Group 1: 200 mg/kg day 0, 25 mg/kg b.i.d. days 1-9, IM
  plasma viremia: did not develop detectable viremia
[1]; Group 2: 150 mg/kg day 0, 19 mg/kg b.i.d. days 1-9, IM
  plasma viremia: only one animal from this group showing slight viremia
[1]; Group 3: 100 mg/kg day 0, 13 mg/kg b.i.d. days 1-9, IM
  plasma viremia: only two animals from this group showing slight viremia
[1]; Group 4: 50 mg/kg day 0, 6 mg/kg b.i.d. days 1-9, IM
  plasma viremia: viremic between days 4 to 7 post-infection
[1]; IM, Groups 1 to 4
  tolerability: well-tolerated
[1]; total dose 492 mg/kg (Group 2)
  samples with Zika virus below the limit of quantification: 3 out of 4
[1]; total dose 650 mg/kg (group 1)
  samples with Zika virus below the limit of quantification: 4 out of 4
[1]; total doses greater than 334 mg/kg (Groups 1 to 3), p <0.0001
  maximum Zika virus titers vs control: decreased dramatically
[2]; Group 1: 200 mg/kg split dose day 0 (+90 min), 25 mg/kg b.i.d. days 1-9, IM, n=5
  plasma viremia through day 28 post-infection: did not develop detectable viremia
[2]; Group 1, FIG. 13A
  Zika virus RNA in CSF, saliva and urine: only sporadically detectable Zika virus RNA
[2]; Group 2: 200 mg/kg split dose day 0 only, IM
  magnitude of viremia in viremic animals: significantly reduced as compared to control
[2]; Group 2: 200 mg/kg split dose day 0 only, IM, n=5
  animals with detectable plasma viremia: only two animals from this group showing viremia
[2]; Group 2, FIG. 13B
  Zika virus RNA in CSF, saliva and urine: only sporadically detectable Zika virus RNA
[2]; IM, Groups 1 and 2
  tolerability: well-tolerated
[3]
  clinically significant laboratory abnormalities: no clinically significant laboratory abnormalities occurred
  exposure vs dose: dose-proportional and linear with increasing dose
[3]; 4 mg/kg
  plasma PK profile on co-administration of lidocaine: without altering the plasma PK profile
[4]; FIG. 14A
  viral RNA in serum after heterologous challenge: minimal viral RNA
[4]; FIG. 14B
  viral RNA in CSF after heterologous challenge: minimal viral RNA
[5]; group 1 (300 mg/kg/day from day 0, 7 survivors), second Zika challenge day 28, no additional dosing
  re-challenged mice surviving at day 60: 7 mice
[5]; group 2 (300 mg/kg/day from day 0, sham infected), no dosing at challenge
  survival after first Zika challenge on day 28: no survival was observed past day 51
